Data on 1 substance can be found in patent publication US20140199714A1, “METHOD FOR DETECTING CANCER CELLS METASTASIZING INTO SENTINEL LYMPH NODE” (SHINSHU UNIVERSITY, priority 2008, published 2014).

Common to all, as to assay type: cell-based
Assay [1] deals with attachment of MCF-7 carcinoma cells to human LECs. As to the kind of experiment: In vitro human LECs attachment assay (CCL2), MCF-7. Particulars: 18 hrs.-stimulation of 10 ng/mL CCL2 vs negative control with DMEM/F12; p<0.01. Here is the method:
(§1) The human LECs were plated to form a monolayer on type I collagen-coated 35 mm plates and incubated to confluence in 5% O2, 5% CO2, and 90% N2 at 37° C. The LECs were kept in serum-starved medium containing EBM-2 with 3% FBS. Selected plates were treated with 10 ng/mL CCL2 for 18 hrs. In some experiments, the plates were stimulated by the serum-starved medium pretreated with neutralization of 10 ng/mL CCL2 with 1.0 μg/mL CCL2 specific antibody.
(§2) In some experiments, the plates were also treated with anti-human ICAM-1 antibody (available from R&D systems, US) for 30 min. after the 18 hrs. treatment with 10 ng/mL CCL2.
(§3) The two kinds of the breast carcinoma cells such as MDA-MB-231 and MCF-7 stained with PKH26 fluorescent dye (available from SIGMA, US) were then plated at 1×10^5 cells per plate and incubated for 30 min. at 37° C. Unbound cells were removed by aspiration, and the plates were washed with EBM-2 three times. The attachment of the carcinoma cells was quantified by counting the number of cells under ×100 magnification using a Leica microscope.

The subject of another assay is VCAM-1 on human LECs. As to the kind of experiment: Immunohistochemical expression of VCAM-1 on cultured human LECs. On the procedure: Using an indirect immunohistochemical technique, the inventors examined the effects of the supernatants of culture medium of two kinds of carcinoma cells, MDA-MB-231 and MCF-7, on the expression of adhesion molecules such as E-selectin, P-selectin, vascular cell adhesion molecule (VCAM)-1, and intercellular adhesion molecule (ICAM)-1 on the human LECs. The carcinoma cells were plated in DMEM/F12 with 10% FBS, which was replaced the following day with DMEM/F12 with 3% FBS, and then collected after overnight culture. The collected solution was centrifuged at 2,000 rpm for 5 min. at 4° C. To examine the effects of the supernatants on the expression of the adhesion molecules on the human LECs, 1 mL of each collected solution was added to starvation culture medium, EBM-2 with 3% FBS of the human LECs, and then stimulated for 48 hrs. on the cells. In some experiments, the supernatant solutions at different concentrations (1/100 or 1/10,000 dilution) were constructed with appropriate volumes of DMEM/F12 with 3% FBS.
Indirect immunohistochemical studies were performed on the cultured LECs seeded or glass slides coated with type I collagen, and then the cells were fixed with 3.3% formalin in phosphate-buffered saline solution (PBS), for 20 min. at room temperature. The cells were washed three times with PBS, and then incubated overnight at 4° C. with primary polyclonal human antisera to E-selectin/CD62E (dilution 10 μg/mL, available from R&D Systems, US), P-selectin/CD62P (dilution 10 μg/mL, available from R&D Systems, US), VCAM-1/CD106 (dilution 10 μg/mL, available from R&D Systems, US), and ICAM-1/CD54 (dilution 10 μg/mL, available from R&D Systems, US).
Before primary staining, the cultured cells were permeabilized with 0.1% TRITON-X. After washing three times in PBS, the cells were incubated for 1 hr. at room temperature with 1:100 diluted ALEXA FLUOR 488 donkey anti-mouse IgG (available from Invitrogen, US). The nuclei of cultured cells were counter-stained and mounted with PROLONG GOLD antifade reagent with 4′-6-diamidine-2-phenylindole (DAPI) (available from Molecular Probes, US), examined by a fluorescent microscope (Leica, Switzerland), and photographed.
Immunohistochemistry was performed on the cultured human LECs or the fresh-frozen SLNs isolated from the breast cancer patients. In brief, the cultured LECs were fixed with 10% formalin in the phosphate-buffered saline solution (PBS) at room temperature. The cells were incubated for 4 hrs. at room temperature with primary polyclonal human antisera platelet-endothelial cell adhesion molecule (PECAM)-1 (dilution 1:100, available from BD Biosciences, US), lymphatic vessel endothelial hyaluronan receptor (LYVE)-1 (dilution 1:50, available from RELIATech, Germany), PROX-1 (dilution 1:50, available from AngioBio, US), podoplanin (dilution 1:50, available from AngioBio, US), vascular endothelium growth factor receptor 3 (VEGF R3) (dilution 1:50, available from Santa Cruz, US), E-selectin/CD62E (dilution 1:50, available from R&D systems, US), P-selectin/CD62P (dilution 1:50, available from R&D systems, US), vascular cell adhesion molecule (VCAM)-1/CD106 (dilution 1:50, available from R&D systems, US), and intercellular adhesion molecule (ICAM)-1/CD54 (dilution 1:50, available from R&D systems, US). Before the staining, permeabilization of the cultured cells with 0.1% TRITON-X was performed. Then, the cells were stained using the following antibodies: ALEXA FLUOR 488 chicken anti-rabbit IgG or ALEXA FLUOR 488 donkey anti-mouse IgG (available from Invitrogen, US). The nuclei of the cultured cells were counter-stained and mounted with ProLong Gold antifade reagent with 4′-6-diamidine-2-phenylindole (DAPI) (available from Molecular Probes, US). The cultured cells were examined by a fluorescent microscope (available from Leica, Germany) and photographed. […]

Assay [2] relates to attachment of MDA-MB-231 carcinoma cells to human LECs. The assay can be described thus: In vitro human LECs attachment assay (CCL2), MDA-MB-231. Particulars: 18 hrs.-stimulation of 10 ng/mL CCL2 vs negative control with DMEM/F12; p<0.01. On the procedure:
as §1, §2, §3

In assay [3] the test system is ICAM-1 protein in human LECs. The assay can be described thus: Western blot analysis of ICAM-1 protein in human LECs. The settings on record: 18 hrs.-stimulation of 10 ng/mL CCL2. On the procedure: Western blot analysis was performed to quantitatively evaluate the CCL2-mediated ICAM-1 expression on the cultured human LECs. The cells were dissolved in M-PER (Mammalian Protein Extraction Reagent available from Thermo Fisher Scientific Inc., US) and centrifuged at 14,000 r.p.m. for 10 min. A 15 μg sample of the total cell lysate was resolved in SDS sample buffer for sodium dodecyl sulfate-polyacrylamide gel electrophoresis (SDS-PAGE) and transferred to an polyvinylidene difluoride (PVDF) membrane (available from Atto Corporation, Japan), where it was incubated for 45 min The membrane was probed with the anti-ICAM-1 antiserum (dilution 1:1000, available from Cell Signaling Technology Inc., US) and then incubated with anti-rabbit immunoglobulin G (IgG) horseradish peroxidase conjugated antibody. The same membrane was reprobed with monoclonal anti-actin antibody (available from Santa Cruz Biotechnology Inc., US) and then visualized with an ECL-Western blotting detection system (available from Amersham Bioscience Inc., UK).
A general note: A western blot detects proteins with antibodies after separation by electrophoresis.

Regarding CCL2: chemokine CCL2, the “in vitro attachment of MCF-7 to human LECs” value in assay [1] was “significant increase”. In addition, the “expression of VCAM-1 on human LECs” value in the assay on VCAM-1 on human LECs (4 hrs-stimulation of 10 ng/mL CCL2) is “no or little expression”; with VCAM-1 on human LECs (18 hrs.-stimulation with 10 ng/mL chemokine) it was “Little or no expression”. The “in vitro attachment of MDA-MB-231 to human LECs” value in assay [2] is listed as “significant increase”. Further, the “expression of ICAM-1 protein” value in assay [3] is reported as “significant expression”.
